From US5103018A, “Mitomycin derivatives” (Kyowa Hakko Kogyo Kabushiki Kaisha, priority 1986, dated 1992)
Converted amounts (≈) assume the structure as drawn.

Columns and labels:
[1] = system: Streptococcus faecalis ATCC 10541; assay: Minimum inhibitory concentration, agar dilution method, SF; format: cell-based; conditions: Enterococcus faecalis, ATCC10541, pH 7, read-out: minimum inhibitory concentration, SF
Source text: (§1) Certain Compounds I were selected. Table 3 indicates their anti-bacterial activities in terms of their minimum inhibitory concentration (μg/ml), determined by the agar dilution method effected at a pH of 7.0. In this table, the microorganisms used are abbreviated as follows:
SF: Streptococcus faecalis ATCC 10541

[2] = system: Escherichia coli ATCC 26; assay: Minimum inhibitory concentration, agar dilution method, EC; format: cell-based; conditions: Escherichia coli, ATCC26, pH 7, read-out: minimum inhibitory concentration, EC
Source text: as §1
EC: Escherichia coli ATCC 26

[3] = Solubility in water; format: physicochemical; conditions: for solubility: water
[4] = Equilibration between mitomycin-type and albomitomycin-type substance in aqueous solution; format: physicochemical; conditions: aqueous solution (5 mg/ml), 25° C., 24 hours
Procedure: In the case wherein the compound of Example 1 described hereinafter was equilibrated by allowing to stand in an aqueous solution (5 mg/ml) at a temperature of 25° C. for 24 hours, the molar ratio of the albomitomycin-type substance was 8.5%.

[5] = Acute toxicity; format: in vivo, mice (ddy); conditions: mouse, in vivo, ip; for LD50 at 336 h: ddy mice, single i.p., 14 days, Behren Korber's method; for selectivity ratio: read-out: (C.I.)* = (LD50/ED50)/[(LD50/ED50) of MMC1]
Procedure: (§2) Certain compounds were selected from Compounds I. The following Table 4 indicates anti-tumour activity against Sarcoma 180 solid tumour (ED50), acute toxicity (LD50) and effects on the peripheral leucocytes (WBC4000) of each compound.
(§3) Each animal of the test group consisting of 5 ddy mice was once administered (i.p.) with a test compound. […] The LD50 was determined by Behren Korber's method.

[6] = system: ddy mice; assay: Acute toxicity; format: in vivo; conditions: for C.I. (LD50/ED50) (in words): in comparison with mitomycin C
Procedure: as §2, §3

[7] = system: P388 Leukemia; assay: Effect upon Leukemia P 388; format: in vivo, mouse (CDF1); conditions: single i.p., 33 days
Procedure: (5) Effect upon Leukemia P 388:
Ascites cells were collected from P388 Leukemia-carrying mouse (DBA/2) 7 days after the implantation. The number of the cells of P388 Leukemia in the sample was counted. A physiological solution of sodium chloride was sterilized and used to prepare a cell suspension containing 5×10^6 tumour cells per ml. On each occasion, 0.2 ml of the suspension containing 1×10^6 cells was implanted into the abdominal cavity of each mouse (CDF1; body weight 20~25 g). 24 hours after implantation, the test compound was once given to each mouse of a test group consisting of 6 mice by abdominal injection.
The activity of the test samples was determined by the ratio of the average survival days of the treated animals to the average survival days of untreated animals viz. ILS % (Increased Life Span).

[8] = system: Klebsiella pneumoniae ATCC 10031; assay: microbe, parasite or virus in culture; format: cell-based; conditions: ATCC10031, pH 7, read-out: minimum inhibitory concentration, KP
Source text: Certain Compounds I were selected. […] In this table, the microorganisms used are abbreviated as follows:
KP: Klebsiella pneumoniae ATCC 10031

[9] = in vivo; format: in vivo, mice (ddy strain); conditions: mouse, in vivo, ip; read-out: (WBC4000/ED50)* = (WBC4000/ED50)/[(WBC4000/ED50) of MMC1]
Procedure: as §2
(§4) (4) Effect upon the number of the peripheral leucocytes:
(§5) Sarcoma 180 solid tumour cells (5×10^6) were subcutaneously implanted into the right armpit of each mouse (body weight 20±2 g) of a group consisting of 5 male mice (ddy strain). 24 hours after implantation,a test compound was abdominally administered to each mouse. 4 days later, blood (each 0.02 ml) was collected from the suborbital plexus vein of each tumour-carrying mouse. The collected sample of blood was dispersed in 9.98 ml of Cell-kit Seven solution. One drop of saponin solution was added to the sample to dissolve erythrocytes and then a microcell counter was used to measure the number of leucocytes. On graph paper, the number of leucocytes was indicated on the y-axis by an arithmetic scale and the does of the test compound was indicated on the x-axis by a logarithmic scale.
(§6) The relationship between the number of peripheral leucocytes and the dosage of the test compound was plotted to obtain WBC4000 viz. the dosage corresponding to […] per mm^3 (about half of the number of leucocytes of normal mice).

[10] = system: peripheral leucocytes; assay: in vivo; format: in vivo, mice (ddy strain); conditions: for WBC4000/ED50 (in words): in comparison with mitomycin C
Procedure: as §2, §4, §5, §6

[11] = system: Proteus vulgaris ATCC 6897; assay: Minimum inhibitory concentration, agar dilution method, PV; format: cell-based; conditions: Proteus vulgaris, ATCC6897, pH 7, read-out: minimum inhibitory concentration, PV
Source text: as §1
PV: Proteus vulgaris ATCC 6897

[12] = system: Staphylococcus aureus ATCC 6583P; assay: Minimum inhibitory concentration, agar dilution method, SA; format: cell-based; conditions: Staphylococcus aureus, ATCC6583P, pH 7, read-out: minimum inhibitory concentration, SA
Source text: as §1
SA: Staphylococcus aureus ATCC 6583P

[13] = system: Sarcoma 180 solid tumour; assay: animal or person; format: in vivo, mice (ddy strain); conditions: for ED50: Mus musculus, Sarcoma-180, ip, 168 h, read-out: ED50 ip
Source text: as §2
(1) Effect against Sarcoma 180 solid tumour:
5×10^6 cells of Sarcoma 180 solid tumour cells were abdominally implanted into male mice of ddy strain. 7 days after this, ascites cells were sampled. The cells were washed once with a sterilized physiological solution of sodium chloride and were used to prepare a cell suspension containing 5×10^7 cells per ml. On each occasion, 0.1 ml of the cell suspension was subcutaneously implanted into the right armpit of a male mouse (ddy strain; body weight 20±2 g). 24 hours after the implantation of the tumour cells, the test compound which was dissolved in a physiological solution of sodium chloride with or without addition of Tween 80 was abdominally administered to each mouse of a group consisting of 5 animals at a does of 0.1-0.2 ml. The anti-tumour activity was determined as follows:
7 days after the implantation, the major axis (a) and the minor axis (b) of the tumour were measured to calculate a value of "a×b^2 /2" which corresponds to the volume of the tumour. The anti-tumour activity was expressed by T/C viz. the ratio of the volume of the tumours (T) of the group of animals administered with the test compound to the corresponding volume of tumours (C) of the untreated animals.
(2) Determination of ED50 :
The term ED50 denotes the administered amount needed for reducing the volume of Sarcoma 180 solid tumours in the animals to 50% on the basis of the corresponding volume of Sarcoma 180 solid tumours in control (untreated) animals.
On graph paper, T/C was indicated by an arithmetic scale on the longitudinal axis and the administered amount of test compound was indicated by a logarithmic scale on the lateral axis.

[14] = Lipophilicity; format: physicochemical; conditions: in comparison with mitomycin C
[15] = Stability of isolated compound; format: physicochemical

| Structure (SMILES) | LD50 at 336 h [5] [mg/kg] | selectivity ratio [5] | C.I. (LD50/ED50) (in words) [6] | selectivity ratio [9] | WBC4000/ED50 (in words) [10] | ED50 [13] [mg/kg] | lipophilicity (in words) [14] | further results |
| --- | --- | --- | --- | --- | --- | --- | --- | --- |
| CO[C@@]12[C@H](COC(N)=O)C3=C(C(=O)C(C)=C(NCCSSCCNC(=O)CC[C@H](N)C(=O)O)C3=O)N1C[C@@H]1N[C@@H]12 [Compound 1, 7-N-[2-[[2-(N^5 -L-glutamino)ethyl]dithio]ethyl]mitomycin C] | 22.5 | 2.58 | very high | 4.12 | very high | 2.7 | – | MIC [1]: 1.6 µg/mL (≈ 2.67 µM); MIC [2]: > 50 µg/mL; water-solubility (in words) [3]: good; solubility [3]: > 20 mg/mL; molar ratio of the albomitomycin-type substance at equilibrium [4]: 8.5%; ILS* (ratio of ILS % to that of mitomycin C) ([7]; dose 25 mg/kg): > 2.30; MIC [8]: 0.4 µg/mL (≈ 0.668 µM); MIC [11]: 0.8 µg/mL (≈ 1.34 µM); MIC [12]: 0.8 µg/mL (≈ 1.34 µM) |
| CO[C@@]12[C@H](COC(N)=O)C3=C(C(=O)C(C)=C(NCCSSCCNC(=O)C[C@H](N)C(=O)O)C3=O)N1C[C@@H]1N[C@@H]12 [Compound 6, 7-N-[2-[[2-(N^4 -L-asparagino)ethyl]dithio]ethyl]mitomycin C] | 26.3 | 1.81 | – | 2.38 | – | 5 | – | MIC [1]: 3.1 µg/mL (≈ 5.3 µM); MIC [2]: > 50 µg/mL; solubility [3]: > 20 mg/mL; MIC [8]: 0.8 µg/mL (≈ 1.37 µM); MIC [11]: 0.8 µg/mL (≈ 1.37 µM); MIC [12]: 0.8 µg/mL (≈ 1.37 µM) |
| CO[C@@]12[C@H](COC(N)=O)C3=C(C(=O)C(C)=C(NCCSSCC(=O)O[C@H]4CC[C@H]5[C@@H]6CCc7cc(OC(=O)c8ccccc8)ccc7[C@H]6CC[C@]45C)C3=O)N1C[C@@H]1N[C@@H]12 [Compound 26, 7-N-[2-[[[[17β-(3-benzoyloxy-1,3, 5(10)-estratrienyl)oxy]carbonyl]methyl]dithio]ethyl]mitomycin C] | 18.8 | 1.27 | superior to mitomycin C | 2.57 | superior to mitomycin C | 5 | superior to mitomycin C | ILS* (ratio of ILS % to that of mitomycin C) ([7]; dose 6.25 mg/kg): > 1.08 |
| CO[C@@]12[C@H](COC(N)=O)C3=C(C(=O)C(C)=C(NCCSSCCC(=O)O[C@H]4CC[C@H]5[C@@H]6CCc7cc(OC(=O)c8ccccc8)ccc7[C@H]6CC[C@]45C)C3=O)N1C[C@@H]1N[C@@H]12 [Compound 27, 7-N-[2-[[2-[[17β-(3-benzoyloxy-1,3, 5(10)-estratrienyl)oxy]carbonyl]ethyl]dithio]ethyl]mitomycin C] | 22.5 | 1.63 | superior to mitomycin C | 2.43 | superior to mitomycin C | 4.6 | superior to mitomycin C | ILS* (ratio of ILS % to that of mitomycin C) ([7]; dose 12.5 mg/kg): > 1.53 |
| CC1=C(NCCSSCC(=O)O[C@H]2CC[C@H]3[C@@H]4CCc5cc(OC(=O)c6ccccc6)ccc5[C@H]4CC[C@]23C)C(=O)C2=C(C1=O)N1C[C@H]3[C@H](N3C)[C@]1(O)[C@H]2COC(N)=O (stereo partly drawn) [Compound 28, 7-N-[2-[[[[17β-(3-benzoyloxy-1,3, 5(10)-estratrienyl)oxy]carbonyl]methyl]dithio]ethyl]mitomycin D] | 75 | 2.53 | superior to mitomycin C | 1.43 | superior to mitomycin C | 9.9 | superior to mitomycin C | ILS* (ratio of ILS % to that of mitomycin C) ([7]; dose 25 mg/kg): > 1.67 |
| CC1=C(/C=C/C(C)=C/C=C/C(C)=C/C(=O)NCCSSc2ccccn2)C(C)(C)CCC1 [Compound "m", N-2-(2-pyridyldithio)ethylretinamide] | – | – | – | – | – | – | – | stability (in words) [15]: unstable |
| Cc1c(C)c2c(c(C)c1OC(=O)CCC(=O)NCCSSc1ccccn1)CC[C@@](C)(CCC[C@H](C)CCC[C@H](C)CCCC(C)C)O2 [Compound "n"] | – | – | – | – | – | – | – | stability (in words) [15]: relatively stable |
| CO[C@]12[C@H](COC(N)=O)[C@H]3C(=O)C(N)=C(C)C(=O)[C@]34N3[C@H]1[C@@H]3CN24 [MM-C 2, albomitomycin C, reference compound] | – | – | – | – | – | – | – | LD50 ip ([6]; ddy mice, single i.p., 14 days, Behren Korber's method): < 12.0 mg/kg; (C.I.)* = (LD50/ED50)/[(LD50/ED50) of MMC1] ([6]; relative to mitomycin C, ip): 1.16; (WBC4000/ED50)* = (WBC4000/ED50)/[(WBC4000/ED50) of MMC1] ([10]; relative to mitomycin C, ip, 4 days after dosing): 0.95; ED50 ip ([13]; ddy mice, i.p. 24 h after implantation, 50% reduction of tumour volume at day 7): 5.4 mg/kg |
